Laboratory results taken from patent US20060147400A1, “Composition, especially a cosmetic composition, containing at least one alkyl para-hydroxybenzoate and at least one lipophilic amino acid derivative” (L'Oreal, priority 2002, published 2006).

Assay: Solubility of alkyl para-hydroxybenzoates in a solubilizer/solvent (80° C., stirring one hour, dissolution monitored over time)
Format: physicochemical
Conditions: comparative; same amount (60% by weight) in water, conventionally used solvent
Protocol: Protocol: The alkyl para-hydroxybenzoates are weighed out and placed in a hermetic pill bottle. The required amount of lipophilic amino acid derivative (solubilizer) is added. The suspension is brought to 80° C. and stirred. by magnetic stirring for one hour. The dissolution or non-dissolution of the alkyl para-hydroxybenzoate and its change over time are then monitored. The insolubility of the alkyl para-hydroxybenzoate in the solubilizer is characterized macroscopically by a precipitate or just a cloudy solution, and microscopically by the presence of crystals.

CCCOC(=O)c1ccc(O)cc1 [propyl para-hydroxybenzoate]
dissolution or non-dissolution in water: formation of insoluble crystals and a paste
